Measurements reported in patent US11807835B2, “Detergent compositions containing a stabilized enzyme by phosphonates” (ECOLAB USA INC., priority 2016, dated 2023).

Experiments:
protease = test: Protease activity retention in detergent use solution (4000 ppm, 5 GPG water; peptidyl substrate, glycine buffer pH 9.0); assay type: biochemical; details: for Relative Protease Enzyme Activity: use solution at 120° F.
Protocol: The enzyme activities in the detergents with different phosphonate levels were tested at 4000 ppm in 5 grains per gallon (GPG) water at 120° F. with various time points collected up to 4 hours, after a use solution was generated from the detergent composition. During the tests, the samples at different time points were collected and immediately frozen in an acetone/dry ice bath and stored in −80° C. before the activity of the enzyme was evaluated. For the use of such an assay, t=0 min was the reference point for 100% enzyme activity.
(§1) Assays of enzyme activity in formulations (% retention) were conducted to simulate a presoak condition in a beaker using the chemistry, temperature, and pH conditions relevant to manual warewash or presoak applications. Enzyme activity is an indicator of the stability of the enzyme in the detergent, specifically in an aqueous use solution within a sump (which is under conditions of high pH, temperature and dilution).
The analysis by protease assay was conducted as follows. For the assays, a detergent composition was used to generate an aqueous use solution evaluated herein.
(§2) Enzyme activity under presoak or manual warewash conditions was traced quantitatively using a standard protease assay. Samples were prepared under bench top conditions, whereby the use solution from a detergent composition or detergent was obtained and maintained at a presoak or manual warewash temperature in a stirring water bath. After the time course for assessing enzyme stability is initiated, aliquots were taken at various time points and flash-frozen. A time=0 sample was prepared for each series by dissolving the detergent formulation at room temperature, mixing thoroughly, and flash freezing. Samples were thawed and diluted as necessary in an assay buffer usually for use in the protease assay. A glycine buffer at pH 9.0 is used here. The assay monitored the direct reaction of the protease on a small, commercially available peptidyl substrate, with liberation of the product providing correlation to the active enzyme content. The product was detected using a plate reader with an appreciable dynamic range (upper absorbance limit of the instrument >3.5). Enzyme activity levels were assessed relative to a calibration curve with average values for replicate tests used to map protease stability under presoak or manual warewash use conditions. Enzyme retention at each time point was calculated as the % enzyme activity relative to the time=0 sample.

lipase = test: Lipase activity retention in detergent use solution (4000 ppm, 5 GPG water; p-nitrophenyl valerate, TRIS buffer pH 8.0); assay type: biochemical; details: Table 6E, phosphonate 0.3 wt-%, room temperature
Protocol: The enzyme […] collected up to 4 hours, after a use solution was generated from the detergent composition. During the tests, the samples at different time points were collected and immediately frozen in an acetone/dry ice bath and stored in −80° C. before the activity of the enzyme was evaluated. For the use of such an assay, t=0 min was the reference point for 100% enzyme activity.
as §1, §2
The analysis by lipase and amylase assay was conducted similarly, except with a different substrate and buffers. For lipase activity, the substrate is p-nitrophenyl valerate, and for amylase, the substrate is an ethylidene substrate (EPS). The buffer used in lipase assay is TRIS (Tris(hydroxymethyl)aminomethane) buffer at pH 8.0, and in amylase assay HEPES (4-(2-hydroxyethyl)-1-piperazineethanesulfonic acid) buffer at pH 8.0.

With CC(O)(P(=O)(O)O)P(=O)(O)O [HEDP, 1-hydroxy ethylidene-1,1-diphosphonic acid] the “Relative Protease Enzyme Activity” value (protease; All Ash formula, phosphonate 0.3 wt-%, time 0 min) was 100.00%, the “Relative Protease Enzyme Activity” value (protease; All Ash formula, phosphonate 0.3 wt-%, time 5 min) was 8.63% and the “Relative Protease Enzyme Activity” value (protease; All Ash formula, phosphonate 0.3 wt-%, time 10 min) was 3.25%. The “Relative Protease Enzyme Activity” value (protease; All Ash formula, phosphonate 0.3 wt-%, time 20 min) was 0.61%, the “Relative Protease Enzyme Activity” value (protease; All Ash formula, phosphonate 0.3 wt-%, time 40 min) was −1.32% and the “Relative Protease Enzyme Activity” value (protease; All Ash formula, phosphonate 0.3 wt-%, time 60 min) was −1.66%. The “Relative Protease Enzyme Activity” value (protease; All Ash formula, phosphonate 0.3 wt-%, time 90 min) was −0.97%, the “Relative Protease Enzyme Activity” value (protease; All Ash formula, phosphonate 0.3 wt-%, time 120 min) was −1.23% and the “Relative Protease Enzyme Activity” value (protease; All Ash formula, phosphonate 0.3 wt-%, time 150 min) was −0.85%. The “Relative Protease Enzyme Activity” value (protease; All Ash formula, phosphonate 0.3 wt-%, time 180 min) was −0.93%, the “Relative Protease Enzyme Activity” value (protease; All Ash formula, phosphonate 0.3 wt-%, time 210 min) was −0.42% and the “Relative Protease Enzyme Activity” value (protease; All Ash formula, phosphonate 0.3 wt-%, time 240 min) was −0.42%. The “Relative Protease Enzyme Activity” value (protease; base formula, phosphonate 0.3 wt-%, time 0 min) was 100.00%, the “Relative Protease Enzyme Activity” value (protease; base formula, phosphonate 0.3 wt-%, time 5 min) was 52.21% and the “Relative Protease Enzyme Activity” value (protease; base formula, phosphonate 0.3 wt-%, time 10 min) was 32.95%. For the same compound, the “Relative Protease Enzyme Activity” value (protease; base formula, phosphonate 0.3 wt-%, time 20 min) was 15.91%, the “Relative Protease Enzyme Activity” value (protease; base formula, phosphonate 0.3 wt-%, time 40 min) was 8.68% and the “Relative Protease Enzyme Activity” value (protease; base formula, phosphonate 0.3 wt-%, time 60 min) was 5.52%. The “Relative Protease Enzyme Activity” value (protease; base formula, phosphonate 0.3 wt-%, time 90 min) was 4.10%, the “Relative Protease Enzyme Activity” value (protease; base formula, phosphonate 0.3 wt-%, time 120 min) was 3.10% and the “Relative Protease Enzyme Activity” value (protease; base formula, phosphonate 0.3 wt-%, time 150 min) was 2.39%. The “Relative Protease Enzyme Activity” value (protease; base formula, phosphonate 0.3 wt-%, time 180 min) was 1.65%, the “Relative Protease Enzyme Activity” value (protease; base formula, phosphonate 0.3 wt-%, time 210 min) was 1.36% and the “Relative Protease Enzyme Activity” value (protease; base formula, phosphonate 0.3 wt-%, time 240 min) was 1.20%. The “Relative Protease Enzyme Activity” value (protease; base formula, phosphonate 0.6 wt-%, time 0 min) was 100.00%, the “Relative Protease Enzyme Activity” value (protease; base formula, phosphonate 0.6 wt-%, time 5 min) was 69.69% and the “Relative Protease Enzyme Activity” value (protease; base formula, phosphonate 0.6 wt-%, time 10 min) was 51.90%. The “Relative Protease Enzyme Activity” value (protease; base formula, phosphonate 0.6 wt-%, time 20 min) was 27.67%, the “Relative Protease Enzyme Activity” value (protease; base formula, phosphonate 0.6 wt-%, time 40 min) was 12.41% and the “Relative Protease Enzyme Activity” value (protease; base formula, phosphonate 0.6 wt-%, time 60 min) was 7.62%. The “Relative Protease Enzyme Activity” value (protease; base formula, phosphonate 0.6 wt-%, time 90 min) was 4.70%, the “Relative Protease Enzyme Activity” value (protease; base formula, phosphonate 0.6 wt-%, time 120 min) was 2.94% and the “Relative Protease Enzyme Activity” value (protease; base formula, phosphonate 0.6 wt-%, time 150 min) was 1.79%. The “Relative Protease Enzyme Activity” value (protease; base formula, phosphonate 0.6 wt-%, time 180 min) was 0.92%, the “Relative Protease Enzyme Activity” value (protease; base formula, phosphonate 0.6 wt-%, time 210 min) was 0.71% and the “Relative Protease Enzyme Activity” value (protease; base formula, phosphonate 0.6 wt-%, time 240 min) was 0.45%. For the same compound, the “Relative Protease Enzyme Activity” value (protease; base formula, phosphonate at 0.1% elemental phosphorus, time 0 min) was 100.00%, the “Relative Protease Enzyme Activity” value (protease; base formula, phosphonate at 0.1% elemental phosphorus, time 5 min) was 77.74% and the “Relative Protease Enzyme Activity” value (protease; base formula, phosphonate at 0.1% elemental phosphorus, time 10 min) was 53.71%. The “Relative Protease Enzyme Activity” value (protease; base formula, phosphonate at 0.1% elemental phosphorus, time 20 min) was 23.58%, the “Relative Protease Enzyme Activity” value (protease; base formula, phosphonate at 0.1% elemental phosphorus, time 40 min) was 9.12% and the “Relative Protease Enzyme Activity” value (protease; base formula, phosphonate at 0.1% elemental phosphorus, time 60 min) was 5.36%. The “Relative Protease Enzyme Activity” value (protease; base formula, phosphonate at 0.1% elemental phosphorus, time 90 min) was 3.76%, the “Relative Protease Enzyme Activity” value (protease; base formula, phosphonate at 0.1% elemental phosphorus, time 120 min) was 2.44% and the “Relative Protease Enzyme Activity” value (protease; base formula, phosphonate at 0.1% elemental phosphorus, time 150 min) was 1.45%. The “Relative Protease Enzyme Activity” value (protease; base formula, phosphonate at 0.1% elemental phosphorus, time 180 min) was 0.74%, the “Relative Protease Enzyme Activity” value (protease; base formula, phosphonate at 0.1% elemental phosphorus, time 210 min) was 0.64% and the “Relative Protease Enzyme Activity” value (protease; base formula, phosphonate at 0.1% elemental phosphorus, time 240 min) was 0.45%. For the same compound, the “enzyme activity of amine salt of the phosphonate versus non-neutralized phosphonate” value (protease; phosphonate neutralized with an amine, such as triethanolamine) was “much improved enzyme activity”, the “Relative Lipase Enzyme Activity in a Use Solution” value (“Relative Lipase Enzyme Activity” for short) (lipase; time 0 min) was 100.00% and the “Relative Lipase Enzyme Activity” value (lipase; time 5 min) was 101.22%. For the same compound, the “Relative Lipase Enzyme Activity” value (lipase; time 10 min) was 102.97%, the “Relative Lipase Enzyme Activity” value (lipase; time 20 min) was 98.65% and the “Relative Lipase Enzyme Activity” value (lipase; time 40 min) was 81.12%.
